These results are taken from patent US10294237B2, “Bicyclic heterocyclic amide derivative” (Sumitomo Dainippon Pharma Co., Ltd., priority 2015, dated 2019).

Test [1] concerns HCT-116 cells. The test is described as follows: Test for inhibiting sphere-forming ability of cancer cells. The test is classed as cell-based. As to conditions: Homo sapiens, 96 h; HCT-116 spheres, non-adherent, serum-free, 4 days, CellTiter-Glo; read-out: IC50 (Sphere IC50 value; concentration for 50% inhibition of cell proliferation).
Test [2] relates to HCT-116 cells. Nature of the test: Test for inhibiting sphere-forming ability of cancer cells (in the presence of BSA). The test is classed as cell-based. The conditions noted are these: Homo sapiens, HCT-116, 96 h, HCT-116 spheres, non-adherent, 5% BSA, 4 days, CellTiter-Glo; read-out: IC50 (Sphere IC50 value; concentration for 50% inhibition of cell proliferation).
The test system of test [3] is HCT-116 cells. The test is described as follows: Anti-tumor effect to HCT-116 tumor-bearing mouse. The test is classed as in vivo. The conditions noted are these: oral, administration period 17 days, nude mouse. The source says:
The present compound can be used to evaluate the anti-tumor effect thereof. A 4 to 7-week-old nude mouse (BALB/cAnNCrj-nu/nu, female, CHARLES RIVER LABORATORIES JAPAN, INC.) received intradermal transplantation of HCT-116 cells (ATCC) in an amount of 3×10^6 cells/mouse around the ventral portion. The engraftment of HCT-116 cells was observed 5 to 14 days after the transplantation, and then each compound suspended in a solvent such as 0.5% methylcellulose solution was orally administrated to the mouse in a dose of 1 to 100 mg/kg one to twice daily. The tumor volume was measured over time after the administration to evaluate the effect for reducing the tumor volume by the administration of each compound. The tumor volume can be calculated from the minor axis and the major axis of the tumor measured with a digital caliper (Mitutoyo) according to the following formula: Tumor volume [mm^3]=0.5×minor axis [mm]×(major axis [mm])^2
The tumor volume in control administration group treated with only a solvent such as 0.5% methylcellulose solution was compared with that of the present compound administration group, and T/C value was calculated according the following formula to evaluate the anti-tumor effect of the present compound. T/C(%)=(the tumor volume at the end of administration in the present compound administration group−the tumor volume at the start of administration in the present compound administration group)/(the tumor volume at the end of administration in the control administration group−the tumor volume at the start of administration in the control administration group)×100
The T/C values (%) of the present compound on each dosage and administration period in the HCT-116 tumor-bearing mouse are shown below.

For `O=C(Nc1cn(Cc2cccc(C(F)(F)F)c2)cn1)c1cnc2c(c1)CCNC2` [Example 13, N-{1-[3-(trifluoromethyl)benzyl]-1H-imidazol-4-yl}-5,6,7,8-tetrahydro-1,7-naphthyridine-3-carboxamide], the IC50 in test [1] is 0.03 µM; in test [2], 0.06 µM. For the same compound, the T/C in test [3] (dosage 30 mg/kg) is 62%; in test [3] (dosage 100 mg/kg) it was 59%.
Turning to `O=C(Nc1cn(Cc2cccc(C(F)(F)F)c2)cn1)c1ccc2c(n1)CCNC2` [Example 10, N-{1-[3-(trifluoromethyl)benzyl]-1H-imidazol-4-yl}-5,6,7,8-tetrahydro-1,6-naphthyridine-2-carboxamide], the half-maximal inhibitory concentration (IC50) worked out at 0.04 µM in test [1] and 0.05 µM in test [2]. Also, the T/C in test [3] (dosage 30 mg/kg) turned out to be 55%; in test [3] (dosage 100 mg/kg) it was 49%.
For `O=C(Nc1cn(Cc2cc(F)c(F)c(F)c2)cn1)c1cc(F)c2c(c1)CCNC2` [Example 5, 8-fluoro-N-[1-(3,4,5-trifluorobenzyl)-1H-imidazol-4-yl]-1,2,3,4-tetrahydroisoquinoline-6-carboxamide], in that order: 0.07 µM, 0.06 µM, 71% and 42%.
In the case of `O=C(Nc1cn(Cc2cc(F)c(F)c(F)c2)cn1)c1ccc2c(n1)CCNC2` [Example 11, N-[1-(3,4,5-trifluorobenzyl)-1H-imidazol-4-yl]-5,6,7,8-tetrahydro-1,6-naphthyridine-2-carboxamide], the half-inhibitory concentration (IC50) in test [1] and in test [2] was 0.05 µM in each case. The T/C is given as 62% in test [3] (dosage 30 mg/kg) and 46% in test [3] (dosage 100 mg/kg).
`O=C(Nc1cn(Cc2cc(F)c(F)c(F)c2)cn1)c1cnc2c(c1)CCNC2` [Example 12, N-[1-(3,4,5-trifluorobenzyl)-1H-imidazol-4-yl]-5,6,7,8-tetrahydro-1,7-naphthyridine-3-carboxamide]: the IC50 amounted to 0.07 µM in test [1] and 0.06 µM in test [2]. The figures for the T/C in test [3] (dosage 30 mg/kg) and in test [3] (dosage 100 mg/kg) were 79% and 73%, respectively.
Consider `O=C(Nc1cc2c(cn1)CNCC2)c1cn(Cc2cc(F)c(F)c(F)c2)cn1` [Example 3, N-(5,6,7,8-tetrahydro-2,7-naphthyridin-3-yl)-1-(3,4,5-trifluorobenzyl)-1H-imidazole-4-carboxamide], for which the figures for the concentration for half-maximal inhibition (IC50) in test [1] and in test [2] were 0.06 µM and 0.03 µM, respectively. In addition, the figures for the T/C in test [3] (dosage 10 mg/kg) and in test [3] (dosage 30 mg/kg) were 90% and 79%, respectively.
